Experimental data published in PMC5548886 (Cancer Medicine, 2017).
Where two headings read alike, the source gives them in different places.

Legend:
[1] = Pharmacokinetics, unchanged RAF265 in plasma; type: in vivo, human; conditions: for Cmin, Mean (SD): Steady State (average of troughs from Cycle 2 Day 1 onwards); for AUC(0-t) / Cmax / Tmax / half-life: human, plasma, oral; for AUC(0-t): read-out: AUC(0-tlast), Mean (SD); for Cmax: read-out: Cmax, Mean (SD); for Tmax: read-out: Tmax, Median
Protocol: PK parameters included the maximum observed concentration (C max), time to reach C max (T max), area under the curve from time 0 to last measurable concentration (AUClast), time point of the last measurable concentration (T last), and terminal half‐life of elimination phase (T 1/2). Cycle 1 Day 1 and day 15, reported PK parameters include C max, T max, AUClast and T last. Following log‐transformation, the PK parameters AUC and C max from the PK run‐in were analyzed separately using a mixed effects model fitting terms for dose and patient (Patient treated as a random factor)‐ln(PK parameter) = a + b*ln(Dose)+error. In this model, the dose‐exposure relationship is mainly characterized by the slope parameter b. A slope lower (higher) than 1 indicates an under (over) proportional dose‐exposure relationship. The point estimate and associated 90% CI for the slope parameter were determined for safety considerations.

[2] = test system: p53; experiment: IHC of tumor biopsies, H-score change on-treatment vs pretreatment; type: in vivo, human
Protocol: Pharmacodynamic markers were examined using peripheral blood samples, tumor and nevi biopsies (when available) and tumor imaging. BRAF mutation status was determined by Sanger sequencing. Pharmacodynamic markers analyzed, in available tumor/nevus samples obtained before treatment or archival tissue and during treatment on cycle 1, day 8 or day 15, including cytoplasmic p‐MEK, p‐ERK, BIM, c‐KIT, p‐AKT473, pS6 and PTEN, and nuclear p‐ERK, Ki‐67, PARP, cyclin D1, MITF, p27, and p53. Biomarker expression was determined by calculating the percentage of change in the H‐score (14) between on‐treatment and fresh/archival pretreatment specimens. Blood levels of VEGFR‐2 and were assessed before and at multiple time points while on treatment using enzyme‐linked immunosorbent assay (ELISA). […] Changes in standard uptake value (SUV) were determined by a blinded, independent central imaging review panel. Complete metabolic response (CMR) was complete resolution of tumor FDG‐PET uptake so SUV is the same as background. Partial metabolic response (PMR) decrease in sum of the tumor SUV of ≥25% from the baseline scan. Progressive metabolic disease (PMD) was defined as an increase in tumor SUV of ≥25% from the baseline scan, or the appearance of new FDG‐PET uptake in metastatic lesions. Stable metabolic disease (SMD) was defined as a change in tumor SUV between the PMR and PMD criteria.

[3] = test system: wild-type BRAF protein; conditions: read-out: EC50 for the wild-type BRAF protein; preclinical; cited from earlier work
[4] = 2 mg, Cycle 1 Day 15, DL 1, MD 2 mg
[5] = 3 mg, Cycle 1 Day 15, DL 2, MD 3 mg
[6] = 6 mg, Cycle 1 Day 15, DL 3, MD 6 mg
[7] = 8 mg, Cycle 1 Day 1, DL 1, LD 8 mg
[8] = 10 mg, First dose (PK run-in), DL 1, 10 mg
[9] = 12 mg, Cycle 1 Day 15, DL 4, MD 12 mg
[10] = 16 mg, Cycle 1 Day 1, DL 2, LD 16 mg
[11] = 20 mg, First dose (PK run-in), DL 2, 20 mg
[12] = 24 mg, Cycle 1 Day 15, DL 5, MD 24 mg
[13] = 29 mg, Cycle 1 Day 1, DL 3, LD 29 mg
[14] = 36 mg, First dose (PK run-in), DL 3, 36 mg
[15] = 48 mg, Cycle 1 Day 15, DL 6, MD 48 mg
[16] = 58 mg, Cycle 1 Day 1, DL 4, LD 58 mg
[17] = 67 mg, Cycle 1 Day 15, DL 7, MD 67 mg
[18] = 67 mg, Cycle 1 Day 15, DL 7.1, MD 67 mg
[19] = 72 mg, First dose (PK run-in), DL 4, 72 mg
[20] = 115 mg, Cycle 1 Day 1, DL 5, LD 115 mg
[21] = 144 mg, First dose (PK run-in), DL 5, 144 mg
[22] = 230 mg, Cycle 1 Day 1, DL 6, LD 230 mg
[23] = 288 mg, Cycle 1 Day 1, DL 7.1, LD 288 mg as three doses
[24] = 288 mg, First dose (PK run-in), DL 6, 288 mg
[25] = 322 mg, Cycle 1 Day 1, DL 7, LD 322 mg
[26] = 403 mg, First dose (PK run-in), DL 7, 403 mg

Cn1c(Nc2ccc(C(F)(F)F)cc2)nc2cc(Oc3ccnc(-c4ncc(C(F)(F)F)[nH]4)c3)ccc21 [RAF265]
Tlast, Median ([1]; Cycle 1 Day 1, DL 1, LD 8 mg): 25 h
Tlast, Median ([1]; Cycle 1 Day 1, DL 2, LD 16 mg): 22.9 h
Tlast, Median ([1]; Cycle 1 Day 1, DL 3, LD 29 mg): 23.8 h
Tlast, Median ([1]; Cycle 1 Day 1, DL 4, LD 58 mg): 24.4 h
Tlast, Median ([1]; Cycle 1 Day 1, DL 5, LD 115 mg): 24 h
Tlast, Median ([1]; Cycle 1 Day 1, DL 6, LD 230 mg): 24.1 h
Tlast, Median ([1]; Cycle 1 Day 1, DL 7, LD 322 mg): 24 h
Tlast, Median ([1]; Cycle 1 Day 1, DL 7.1, LD 288 mg as three doses): 23.8 h
Tlast, Median ([1]; Cycle 1 Day 15, DL 1, MD 2 mg): 25.3 h
Tlast, Median ([1]; Cycle 1 Day 15, DL 2, MD 3 mg): 22.5 h
Tlast, Median ([1]; Cycle 1 Day 15, DL 3, MD 6 mg): 24.1 h
Tlast, Median ([1]; Cycle 1 Day 15, DL 4, MD 12 mg): 24 h
Tlast, Median ([1]; Cycle 1 Day 15, DL 5, MD 24 mg): 24 h
Tlast, Median ([1]; Cycle 1 Day 15, DL 6, MD 48 mg): 23.7 h
Tlast, Median ([1]; Cycle 1 Day 15, DL 7, MD 67 mg): 23.4 h
Tlast, Median ([1]; Cycle 1 Day 15, DL 7.1, MD 67 mg): 23.8 h
Tlast, Median ([1]; First dose (PK run-in), DL 1, 10 mg): 168 h
Tlast, Median ([1]; First dose (PK run-in), DL 2, 20 mg): 168 h
Tlast, Median ([1]; First dose (PK run-in), DL 3, 36 mg): 168 h
Tlast, Median ([1]; First dose (PK run-in), DL 4, 72 mg): 167 h
Tlast, Median ([1]; First dose (PK run-in), DL 5, 144 mg): 167 h
Tlast, Median ([1]; First dose (PK run-in), DL 6, 288 mg): 167 h
Tlast, Median ([1]; First dose (PK run-in), DL 7, 403 mg): 168 h
Cmin, Mean (SD) ([1]; DL 1, MD 2 mg): 1.23 (0.22) ug/mL
Cmin, Mean (SD) ([1]; DL 2, MD 3 mg): 1.51 (0.82) ug/mL
Cmin, Mean (SD) ([1]; DL 3, MD 6 mg): 1.82 (0.28) ug/mL
Cmin, Mean (SD) ([1]; DL 4, MD 12 mg): 4.31 (1.22) ug/mL
Cmin, Mean (SD) ([1]; DL 5, MD 24 mg): 7.31 (1.99) ug/mL
Cmin, Mean (SD) ([1]; DL 6, MD 48 mg): 13.1 (5.57) ug/mL
Cmin, Mean (SD) ([1]; DL 7, MD 67 mg): 21.8 (3.76) ug/mL
Cmin, Mean (SD) ([1]; DL 7.1, MD 67 mg): 15.5 (7.47) ug/mL
dose dependence of mean Cmax and AUC ([1]; across dose levels): increased nearly proportionally with dose
AUC(0-t) [1, 4]: 2670 ng·h/mL
Cmax [1, 4]: 130 ng/mL
Tmax [1, 4]: 3 h
AUC(0-t) [1, 5]: 2300 ng·h/mL
Cmax [1, 5]: 120 ng/mL
Tmax [1, 5]: 3.07 h
AUC(0-t) [1, 6]: 4150 ng·h/mL
Cmax [1, 6]: 200 ng/mL
Tmax [1, 6]: 2.52 h
AUC(0-t) [1, 7]: 2080 ng·h/mL
Tmax [1, 7]: 4 h
AUC(0-t) [1, 8]: 6200 ng·h/mL
half-life ([1]; 10 mg, First dose (PK run-in), DL 1, 10 mg, read-out: T1/2, Median (converted)): 287 h
Tmax [1, 8]: 3 h
AUC(0-t) [1, 9]: 8590 ng·h/mL
Cmax [1, 9]: 420 ng/mL
Tmax [1, 9]: 5.13 h
AUC(0-t) [1, 10]: 2650 ng·h/mL
Cmax [1, 10]: 170 ng/mL
Tmax [1, 10]: 3 h
AUC(0-t) [1, 11]: 8770 ng·h/mL
Cmax [1, 11]: 150 ng/mL
half-life ([1]; 20 mg, First dose (PK run-in), DL 2, 20 mg, read-out: T1/2, Median (converted)): 209 h
Tmax [1, 11]: 2 h
AUC(0-t) [1, 12]: 16100 ng·h/mL
Cmax [1, 12]: 850 ng/mL
Tmax [1, 12]: 2.75 h
AUC(0-t) [1, 13]: 3930 ng·h/mL
Cmax [1, 13]: 276 ng/mL
Tmax [1, 13]: 3.53 h
AUC(0-t) [1, 14]: 12100 ng·h/mL
Cmax [1, 14]: 260 ng/mL
half-life ([1]; 36 mg, First dose (PK run-in), DL 3, 36 mg, read-out: T1/2, Median (converted)): 127 h
Tmax [1, 14]: 2.52 h
AUC(0-t) [1, 15]: 28500 ng·h/mL
Cmax [1, 15]: 1650 ng/mL
Tmax [1, 15]: 3.93 h
AUC(0-t) [1, 16]: 7280 ng·h/mL
Cmax [1, 16]: 500 ng/mL
Tmax [1, 16]: 3 h
AUC(0-t) [1, 17]: 46800 ng·h/mL
Cmax [1, 17]: 2650 ng/mL
Tmax [1, 17]: 4 h
AUC(0-t) [1, 18]: 35400 ng·h/mL
Cmax [1, 18]: 1830 ng/mL
Tmax [1, 18]: 3 h
AUC(0-t) [1, 19]: 22600 ng·h/mL
Cmax [1, 19]: 540 ng/mL
half-life ([1]; 72 mg, First dose (PK run-in), DL 4, 72 mg, read-out: T1/2, Median (converted)): 174 h
Tmax [1, 19]: 2.01 h
AUC(0-t) [1, 20]: 15700 ng·h/mL
Cmax [1, 20]: 1070 ng/mL
Tmax [1, 20]: 2 h
AUC(0-t) [1, 21]: 51800 ng·h/mL
Cmax [1, 21]: 1060 ng/mL
half-life ([1]; 144 mg, First dose (PK run-in), DL 5, 144 mg, read-out: T1/2, Median (converted)): 182 h
Tmax [1, 21]: 2.15 h
AUC(0-t) [1, 22]: 28100 ng·h/mL
Cmax [1, 22]: 2250 ng/mL
Tmax [1, 22]: 2.58 h
AUC(0-t) [1, 23]: 18400 ng·h/mL
Cmax [1, 23]: 1130 ng/mL
Tmax [1, 23]: 22.3 h
AUC(0-t) [1, 24]: 99800 ng·h/mL
Cmax [1, 24]: 2310 ng/mL
half-life ([1]; 288 mg, First dose (PK run-in), DL 6, 288 mg, read-out: T1/2, Median (converted)): 183 h
Tmax [1, 24]: 3 h
AUC(0-t) [1, 25]: 39000 ng·h/mL
Cmax [1, 25]: 2720 ng/mL
Tmax [1, 25]: 3 h
AUC(0-t) [1, 26]: 137000 ng·h/mL
Cmax [1, 26]: 2680 ng/mL
half-life ([1]; 403 mg, First dose (PK run-in), DL 7, 403 mg, read-out: T1/2, Median (converted)): 294 h
Tmax [1, 26]: 3 h
half-life ([1]; patients, read-out: half-life (converted)): ~192 h
half-life ([1]; patients, read-out: serum half-life (converted)): ~200 h
P53 % change vs pretreatment, Mean (SD) ([2]; All patients, n 20): +42.14 (195.033) %
P53 % change vs pretreatment, Mean (SD) ([2]; DL 5, n 2): +82.33(190.5) %
P53 % change vs pretreatment, Median ([2]; DL 5, n 2): +82.4%
P53 % change vs pretreatment, Mean (SD) ([2]; DL 6, n 4): +49.32 (123.273) %
P53 % change vs pretreatment, Median ([2]; DL 6, n 4): -3.8%
P53 % change vs pretreatment, Mean (SD) ([2]; DLs 1 - 4, n 10): -27.30 (49.484) %
P53 % change vs pretreatment, Median ([2]; DLs 1 - 4, n 10): -29.2%
P53 % change vs pretreatment, Mean (SD) ([2]; DLs 7 and 7.1, n 4): +188.5 (400.62) %
P53 % change vs pretreatment, Median ([2]; DLs 7 and 7.1, n 4): 0%
